Data: patent publication US9850216B2 (H. LEE MOFFITT CANCER CENTER AND RESEARCH INSTITUTE, INC., priority 2013, dated 2017)
Values joined by “and” are separate entries in the source; they are usually repeats but may differ in a detail not shown here. Identical values can stand only once. Like-named read-outs stand apart in the source and are kept apart here.

Assays:
ACK1 = ACK1 (Homo sapiens, UniProt Q07912); experiment: ACK1 ELISA: phosphorylation of AKT-derived peptide; format: biochemical; settings: Table 1, replicate values listed
ACK1, sequence (Q07912 whole entry): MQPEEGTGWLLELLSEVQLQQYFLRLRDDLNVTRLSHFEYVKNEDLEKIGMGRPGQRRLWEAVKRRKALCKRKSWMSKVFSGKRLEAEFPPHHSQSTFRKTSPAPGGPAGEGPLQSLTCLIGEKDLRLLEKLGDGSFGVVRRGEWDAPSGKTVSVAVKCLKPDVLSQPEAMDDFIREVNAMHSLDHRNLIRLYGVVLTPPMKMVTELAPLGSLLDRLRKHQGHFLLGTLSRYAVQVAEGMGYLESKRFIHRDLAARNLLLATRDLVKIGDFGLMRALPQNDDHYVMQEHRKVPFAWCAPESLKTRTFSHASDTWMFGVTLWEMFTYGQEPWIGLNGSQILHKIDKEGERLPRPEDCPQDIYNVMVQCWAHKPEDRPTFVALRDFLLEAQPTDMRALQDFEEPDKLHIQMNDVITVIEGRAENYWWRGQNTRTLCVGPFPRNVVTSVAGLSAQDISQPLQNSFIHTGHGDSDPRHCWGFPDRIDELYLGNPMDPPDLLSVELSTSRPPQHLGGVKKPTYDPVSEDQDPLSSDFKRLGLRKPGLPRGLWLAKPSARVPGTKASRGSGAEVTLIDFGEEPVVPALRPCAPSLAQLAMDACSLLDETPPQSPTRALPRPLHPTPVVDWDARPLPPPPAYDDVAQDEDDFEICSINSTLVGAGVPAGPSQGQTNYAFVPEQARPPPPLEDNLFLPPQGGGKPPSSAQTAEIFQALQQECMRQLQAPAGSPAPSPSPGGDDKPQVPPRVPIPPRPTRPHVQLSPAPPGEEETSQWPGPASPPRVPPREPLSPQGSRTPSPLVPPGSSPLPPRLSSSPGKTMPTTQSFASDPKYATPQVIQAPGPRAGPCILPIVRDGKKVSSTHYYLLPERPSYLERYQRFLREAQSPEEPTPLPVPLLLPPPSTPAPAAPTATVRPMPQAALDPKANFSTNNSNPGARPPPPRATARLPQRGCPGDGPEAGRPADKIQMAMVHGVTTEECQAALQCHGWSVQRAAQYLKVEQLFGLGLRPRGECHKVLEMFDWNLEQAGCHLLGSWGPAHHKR

[1] = 10 μM, read-out: % Inhibition at 10 μM (ELISA)

Row | Structure (SMILES) | % Inhibition at 10 μM (ELISA) (ACK1; 10 μM) | melting point | inhibition at 10 µM (ACK1; [1]) | % Inhibition at 10 μM (ELISA) (ACK1; 10 μM, hydrochloride) | inhibition at 10 µM (ACK1; read-out: % Inhibition at 10 μM (ELISA), 10 μM)
1 | COc1ccc(CNc2ncc(C(=O)Nc3c(F)cccc3Cl)c(Nc3ccccc3S(=O)(=O)C(C)C)n2)cc1 [YL7-106-1, N-(2-chloro-6-fluorophenyl)-4-(2-(isopropylsulfonyl)phenylamino)-2-(4-methoxybenzylamino)pyrimidine-5-carboxamide] | 14% and 0% | 227 °C (dec.) | – | – | –
2 | CCCS(=O)(=O)c1ccccc1Nc1nc(Cl)ncc1C(=O)Nc1c(F)cccc1Cl [YL7-052, 2-Chloro-N-(2-chloro-6-fluorophenyl)-4-(2-(propylsulfonyl)phenylamino)pyrimidine-5-carboxamide] | 0% and 14% and −8% | 226 to 229 °C | – | – | –
3 | CSc1ccccc1Nc1nc(Nc2ccc(O)cc2)ncc1C(=O)Nc1c(F)cccc1Cl [YL7-039-2, N-(2-chloro-6-fluorophenyl)-2-(4-hydroxyphenylamino)-4-(2-(methylthio)phenylamino)pyrimidine-5-carboxamide] | 40% and 5% | 246 °C (dec.) | – | – | –
4 | CC(C)S(=O)(=O)c1ccccc1Nc1nc(Nc2ccc(O)cc2)ncc1C(=O)Nc1c(F)cccc1Cl [YL7-045-2, N-(2-chloro-6-fluorophenyl)-2-(4-hydroxyphenylamino)-4-(2-(isopropylsulfonyl)phenylamino)pyrimidine-5-carboxamide] | 50% | 168 °C (dec.) | 47% | – | –
5 | CCCSc1ccccc1Nc1nc(Cl)ncc1C(=O)Nc1c(F)cccc1Cl [YL7-051, 2-Chloro-N-(2-chloro-6-fluorophenyl)-4-(2-(propylthio)phenylamino)pyrimidine-5-carboxamide] | – | 197 to 200 °C | 0% | – | –
6 | CCCSc1ccccc1Nc1nc(Nc2ccc(OC)cc2)ncc1C(=O)Nc1c(F)cccc1Cl [YL7-055-3, N-(2-chloro-6-fluorophenyl)-2-(4-methoxyphenylamino)-4-(2-(propylthio)phenylamino)pyrimidine-5-carboxamide] | 1% and 13% | 248 to 249 °C | – | – | –
7 | CC(C)S(=O)(=O)c1ccccc1Nc1nc(Nc2ccc(C(N)=O)cc2)ncc1C(=O)Nc1c(F)cccc1Cl [YL7-106-3, 2-(4-Carbamoylphenylamino)-N-(2-chloro-6-fluorophenyl)-4-(2-(isopropylsulfonyl)phenylamino)pyrimidine-5-carboxamide] | 43% | 230 °C (dec.) | 51% | – | –
8 | CCSc1ccccc1Nc1nc(Nc2ccc(OC)cc2)ncc1C(=O)Nc1c(F)cccc1Cl [YL7-058-3, N-(2-chloro-6-fluorophenyl)-4-(2-(ethylthio)phenylamino)-2-(4-methoxyphenylamino)pyrimidine-5-carboxamide] | 1% and 0% | 250 °C (dec.) | – | – | –
9 | CC(C)S(=O)(=O)c1ccccc1Nc1nc(Nc2ccc(S(N)(=O)=O)cc2)ncc1C(=O)Nc1c(F)cccc1Cl [YL7-100-1] | 6% | 192 °C (dec.) | 8% | – | –
10 | CCS(=O)(=O)c1ccccc1Nc1nc(Cl)ncc1C(=O)Nc1c(F)cccc1Cl [YL7-054, 2-Chloro-N-(2-chloro-6-fluorophenyl)-4-(2-(ethylsulfonyl)phenylamino)pyrimidine-5-carboxamide] | 0% and −3% and −25% | 230 to 233 °C | – | – | –
11 | COc1ccc(Nc2ncc(C(=O)Nc3c(F)cccc3Cl)c(Nc3ccccc3S(C)(=O)=O)n2)cc1 [YL7-037, N-(2-chloro-6-fluorophenyl)-2-(4-methoxyphenylamino)-4-(2-(methylsulfonyl)phenylamino)pyrimidine-5-carboxamide] | 4% and 0% | 267 °C (dec.) | – | – | –
12 | O=C(O)CCCc1ccc(Nc2ncc(Cl)c(NCC3CCCO3)n2)cc1 (stereo not drawn) [NT1-025, 4-(4-(5-Chloro-4-((tetrahydrofuran-2-yl)methylamino)pyrimidin-2-ylamino)phenyl)butanoic acid] | 65% | 180 °C (dec.) | – | – | 61%
13 | CS(=O)(=O)c1ccccc1Nc1nc(Nc2ccc(O)cc2)ncc1C(=O)Nc1c(F)cccc1Cl [YL7-038, N-(2-chloro-6-fluorophenyl)-2-(4-hydroxyphenylamino)-4-(2-(methylsulfonyl)phenylamino)pyrimidine-5-carboxamide] | 39% and 18% | 238 °C (dec.) | – | – | –
14 | CC(C)Sc1ccccc1Nc1nc(Nc2ccc(O)cc2)ncc1C(=O)Nc1c(F)cccc1Cl [YL7-045-4, N-(2-chloro-6-fluorophenyl)-2-(4-hydroxyphenylamino)-4-(2-(isopropylthio)phenylamino)pyrimidine-5-carboxamide] | – | 232 °C (dec.) | 0% | – | –
15 | COc1ccc(Nc2ncc(C(=O)Nc3c(F)cccc3Cl)c(Nc3ccccc3S(=O)(=O)C(C)C)n2)cc1 [YL7-045-1, N-(2-chloro-6-fluorophenyl)-4-(2-(isopropylsulfonyl)phenylamino)-2-(4-methoxyphenylamino)pyrimidine-5-carboxamide] | 37% and 18% | 246 °C (dec.) | – | – | –

Further lines, with some results ahead:

Row | % Inhibition at 10 μM (ELISA) (ACK1; 10 μM) | melting point | inhibition at 10 µM (ACK1; [1]) | % Inhibition at 10 μM (ELISA) (ACK1; 10 μM, hydrochloride) | Structure (SMILES) | inhibition at 10 µM (ACK1; read-out: % Inhibition at 10 μM (ELISA), 10 μM)
16 | 24% and 47% | 233 °C (dec.) | – | – | CCSc1ccccc1Nc1nc(Nc2ccc(O)cc2)ncc1C(=O)Nc1c(F)cccc1Cl [YL7-058-4, N-(2-chloro-6-fluorophenyl)-4-(2-(ethylthio)phenylamino)-2-(4-hydroxyphenylamino)pyrimidine-5-carboxamide] | –
17 | 65% | 220 °C (dec.) | 85% | – | CC(C)S(=O)(=O)c1ccccc1Nc1nc(Nc2ccc(N3CCOCC3)cc2)ncc1C(=O)Nc1c(F)cccc1Cl [YL7-097-1, N-(2-chloro-6-fluorophenyl)-4-(2-(isopropylsulfonyl)phenylamino)-2-(4-morpholinophenylamino)pyrimidine-5-carboxamide] | –
18 | 68% and 43% | 201 °C (dec.) | – | – | CCS(=O)(=O)c1ccccc1Nc1nc(Nc2ccc(O)cc2)ncc1C(=O)Nc1c(F)cccc1Cl [YL7-058-2, N-(2-chloro-6-fluorophenyl)-4-(2-(ethylsulfonyl)phenylamino)-2-(4-hydroxyphenylamino)pyrimidine-5-carboxamide] | –
19 | – | 189 °C (dec.) | – | 0% and −12% and 20% | Cc1ccc(Nc2ncc(Br)c(NCC3CCCO3)n2)cc1F.Cl (stereo not drawn) [YL7-172-4, 5-Bromo-N2-(3-fluoro-4-methylphenyl)-N4-((tetrahydrofuran-2-yl)methyl)pyrimidine-2,4-diamine hydrochloride] | –
20 | – | 184 to 186 °C | 28% | 31% | CC(C)(C)OC(=O)N1CCN(c2ccc(Nc3ncc(C(=O)Nc4c(F)cccc4Cl)c(NCC4CCCO4)n3)cc2)CC1.Cl (stereo not drawn) [YL9-161, tert-Butyl4-(4-(5-(2-chloro-6-fluorophenylcarbamoyl)-4-((tetrahydrofuran-2-yl)methylamino)pyrimidin-2-ylamino)phenyl)piperazine-1-carboxylate hydrochloride] | –
21 | 14% | 60.1 °C (dec.) | 19% | – | CN1CCN(c2ccc(Nc3nc(NCC4CCCO4)c4ccccc4n3)cc2)CC1 (stereo not drawn) [DZ1-106, N2-(4-(4-methylpiperazin-1-yl)phenyl)-N4-((tetrahydrofuran-2-yl)methyl)quinazoline-2,4-diamine] | –
22 | – | 158 °C (dec.) | 41% | 42% and 48% | Cl.O=C(Nc1c(F)cccc1Cl)c1cnc(Nc2ccc(O)c(Cl)c2)nc1NCC1CCCO1 (stereo not drawn) [YL8-009-1, 2-(3-Chloro-4-hydroxyphenylamino)-N-(2-chloro-6-fluorophenyl)-4-((tetrahydrofuran-2-yl)methylamino)pyrimidine-5-carboxamide hydrochloride] | –
23 | – | 194 to 197 °C | – | 69% and 21% and 25% | Cl.Fc1cccc(Nc2ncc(Br)c(NCC3CCCO3)n2)c1 (stereo not drawn) [YL7-172-3, 5-Bromo-N2-(3-fluorophenyl)-N4-((tetrahydrofuran-2-yl)methyl)pyrimidine-2,4-diamine hydrochloride] | –
24 | 85% and 54% and 5% and 10% | 151.7 °C (dec.) | – | – | Cc1cnc(Nc2ccc(N3CCN(C)CC3)cc2)nc1NCC1CCCO1 (stereo not drawn) [DZ1-100, 5-methyl-N2-(4-(4-methylpiperazin-1-yl)phenyl)-N4-((tetrahydrofuran-2-yl)methyl)pyrimidine-2,4-diamine] | –
25 | 48% | 86 °C (dec.) | 61% | – | CN1CCN(c2ccc(Nc3ncc(F)c(NCC4CCCO4)n3)cc2)CC1 (stereo not drawn) [DZ1-098, 5-fluoro-N2-(4-(4-methylpiperazin-1-yl)phenyl)-N4-((tetrahydrofuran-2-yl)methyl)pyrimidine-2,4-diamine] | –
26 | – | 169 °C (dec.) | – | 14% and 35% and 41% | COc1ccc(Nc2ncc(Br)c(NCC3CCCO3)n2)cc1F.Cl (stereo not drawn) [YL7-172-8, 5-Bromo-N2-(3-fluoro-4-methoxyphenyl)-N4-((tetrahydrofuran-2-yl)methyl)pyrimidine-2,4-diamine hydrochloride] | –
27 | 64% | 180 °C (dec.) | 52% | – | Cl.O=C(O)CCCc1ccc(Nc2ncc(Cl)c(NC[C@@H]3CCCO3)n2)cc1 [NT1-027, (S)-4-(4-(5-Chloro-4-((tetrahydrofuran-2-yl)methylamino)pyrimidin-2-ylamino)phenyl)butanoic acid] | –
28 | 72% and 48% and 34% and 46% | 209.5 °C (dec.) | – | – | CCc1cnc(Nc2ccc(N3CCN(C)CC3)cc2)nc1NCC1CCCO1 (stereo not drawn) [DZ1-108, 5-ethyl-N2-(4-(4-methylpiperazin-1-yl)phenyl)-N4-((tetrahydrofuran-2-yl)methyl)pyrimidine-2,4-diamine] | –
